From ChEMBL document CHEMBL5034023, “Development of Multifunctional and Orally Active Cyclic Peptide Agonists of Opioid/Neuropeptide FF Receptors that Produce Potent, Long-Lasting, and Peripherally Restricted Antinociception with Diminished Side Effects” (J Med Chem, 2021)
The source made the active and inactive calls. The rule behind the calls is not given here. Bridge positions count the residues as written; N and C are the ends. Square brackets hold non-standard residues; d marks the D form. Peptide text beside a SMILES is read from it. NMeF = CN[C@@H](Cc1ccccc1)C(=O)O; dDap = NC[C@@H](N)C(=O)O

Key:
[1] = target: T1, Delta-type opioid receptor (Homo sapiens, UniProt P41143); assay: (§1) Agonist activity at DOR (unknown origin) expressed in HEK293-A cells assessed as inhibition of forskolin-induced cAMP accumulation preincubated for 30 mins in presence of 3-isobutyl-1-methylxanthine followed by forskolin and compound addition by competitive PKA binding assay relative to control; format: functional, cell-based; conditions: filed as agonist
Mus musculus [2] = assay: Antinociceptive activity against Kunming mouse model of thermal-induced nociception assessed as maximum possible effect at 90.1 nmol/kg, po measured after 30 min by tail flick test relative to control; format: functional; conditions: 0.5 h
Mu-type opioid receptor = Mu-type opioid receptor (Homo sapiens, UniProt P35372)
Mus musculus [3] = assay: Antinociceptive activity against Kunming mouse model of thermal-induced nociception assessed as maximum possible effect at 90.1 nmol/kg, po measured after 60 min by tail flick test relative to control; format: functional; conditions: 1 h
Mus musculus [4] = assay: Potency index, ratio of test compound ED50 to DN-9 ED50 for antinociceptive activity against Kunming mouse model of thermal-induced nociception assessed as peripheral analgesia administered subcutaneously by tail-flick test; format: functional
Mus musculus [5] = assay: Antinociceptive activity in Kunming mouse assessed as analgesic tolerance administered subcutaneously once daily for 8 days by tail flick test; format: functional, organism-based; conditions: time 8.0 day
[6] = target: T2, Neuropeptide FF receptor 2 (Homo sapiens, UniProt Q9Y5X5); assay: Agonist activity at NPFF2R (unknown origin) expressed in HEK293-A cells assessed as inhibition of forskolin-induced cAMP accumulation preincubated for 30 mins in presence of 3-isobutyl-1-methylxanthine followed by forskolin and compound addition by competitive PKA binding assay; format: functional, cell-based
[7] = Metabolic stability in mouse plasma assessed as degradation half life at 0.01 M measured up to 360 mins; format: ADME, cell-free
Mus musculus [8] = assay: Antinociceptive activity against Kunming mouse model of thermal-induced nociception assessed as duration of analgesic effect administered subcutaneously by tail-flick test; format: functional
[9] = target: T2, Neuropeptide FF receptor 2; assay: as §1, with “NPFF2R” for “DOR”, “accumulation by measuring maximal efficacy” for “accumulation”; format: functional, cell-based; conditions: filed as agonist
[10] = target: Kappa-type opioid receptor (Homo sapiens, UniProt P41145); format: functional, cell-based, HEK293-A
[11] = target: T1, Delta-type opioid receptor; assay: Agonist activity at DOR (unknown origin) expressed in HEK293-A cells assessed as inhibition of forskolin-induced cAMP accumulation preincubated for 30 mins in presence of 3-isobutyl-1-methylxanthine followed by forskolin and compound addition by competitive PKA binding assay; format: functional, cell-based
[12] = target: T3, Neuropeptide FF receptor 1 (Homo sapiens, UniProt Q9GZQ6); assay: as §1, with “NPFF1R” for “DOR”, “accumulation by measuring maximal efficacy” for “accumulation”; format: functional, cell-based; conditions: filed as agonist
Mus musculus [13] = assay: Antinociceptive activity against Kunming mouse model of thermal-induced nociception assessed as maximum possible effect at 90.1 nmol/kg, po measured after 20 min by tail flick test relative to control; format: functional
Mus musculus [14] = assay: Antinociceptive activity against Kunming mouse model of thermal-induced nociception assessed as peripheral analgesia administered subcutaneously by tail-flick test; format: functional; conditions: sc
[15] = target: T3, Neuropeptide FF receptor 1; assay: Agonist activity at NPFF1R (unknown origin) expressed in HEK293-A cells assessed as inhibition of forskolin-induced cAMP accumulation preincubated for 30 mins in presence of 3-isobutyl-1-methylxanthine followed by forskolin and compound addition by competitive PKA binding assay; format: functional, cell-based

T2 sequence (Q9Y5X5 whole entry): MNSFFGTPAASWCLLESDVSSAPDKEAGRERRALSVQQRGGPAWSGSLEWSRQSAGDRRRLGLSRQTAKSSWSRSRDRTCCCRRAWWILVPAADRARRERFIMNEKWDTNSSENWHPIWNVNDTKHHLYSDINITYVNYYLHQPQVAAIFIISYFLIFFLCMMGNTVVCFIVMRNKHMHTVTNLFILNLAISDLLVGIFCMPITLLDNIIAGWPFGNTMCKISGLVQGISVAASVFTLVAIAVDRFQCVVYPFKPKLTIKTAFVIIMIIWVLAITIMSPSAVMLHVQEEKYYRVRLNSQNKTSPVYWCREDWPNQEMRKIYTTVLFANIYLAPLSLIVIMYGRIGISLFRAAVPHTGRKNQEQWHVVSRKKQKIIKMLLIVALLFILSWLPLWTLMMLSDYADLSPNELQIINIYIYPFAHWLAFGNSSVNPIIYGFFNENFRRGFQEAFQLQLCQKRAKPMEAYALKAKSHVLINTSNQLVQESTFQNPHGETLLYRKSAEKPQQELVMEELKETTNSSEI
T1 sequence (P41143 whole entry): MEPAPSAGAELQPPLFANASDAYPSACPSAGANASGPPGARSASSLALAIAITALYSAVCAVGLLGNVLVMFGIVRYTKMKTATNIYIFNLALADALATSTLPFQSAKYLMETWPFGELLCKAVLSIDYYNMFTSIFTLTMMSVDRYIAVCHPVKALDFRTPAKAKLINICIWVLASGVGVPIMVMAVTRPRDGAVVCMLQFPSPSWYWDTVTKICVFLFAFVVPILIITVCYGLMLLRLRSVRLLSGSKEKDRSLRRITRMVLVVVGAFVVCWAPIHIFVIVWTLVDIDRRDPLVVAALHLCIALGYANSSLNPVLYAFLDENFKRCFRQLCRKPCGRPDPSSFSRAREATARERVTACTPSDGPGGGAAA
T3 sequence (Q9GZQ6 whole entry): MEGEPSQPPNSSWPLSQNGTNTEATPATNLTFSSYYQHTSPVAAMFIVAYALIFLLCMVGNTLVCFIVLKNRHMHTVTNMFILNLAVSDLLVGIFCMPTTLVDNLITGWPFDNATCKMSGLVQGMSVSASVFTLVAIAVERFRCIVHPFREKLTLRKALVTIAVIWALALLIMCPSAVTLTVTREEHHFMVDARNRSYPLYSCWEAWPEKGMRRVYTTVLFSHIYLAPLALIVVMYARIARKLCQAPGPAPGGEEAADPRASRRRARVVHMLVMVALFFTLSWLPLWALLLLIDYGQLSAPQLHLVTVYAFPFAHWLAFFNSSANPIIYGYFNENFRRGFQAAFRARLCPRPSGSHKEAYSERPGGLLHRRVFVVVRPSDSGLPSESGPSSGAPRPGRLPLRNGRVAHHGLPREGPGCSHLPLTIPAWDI
Mu-type opioid receptor, sequence (P35372 whole entry): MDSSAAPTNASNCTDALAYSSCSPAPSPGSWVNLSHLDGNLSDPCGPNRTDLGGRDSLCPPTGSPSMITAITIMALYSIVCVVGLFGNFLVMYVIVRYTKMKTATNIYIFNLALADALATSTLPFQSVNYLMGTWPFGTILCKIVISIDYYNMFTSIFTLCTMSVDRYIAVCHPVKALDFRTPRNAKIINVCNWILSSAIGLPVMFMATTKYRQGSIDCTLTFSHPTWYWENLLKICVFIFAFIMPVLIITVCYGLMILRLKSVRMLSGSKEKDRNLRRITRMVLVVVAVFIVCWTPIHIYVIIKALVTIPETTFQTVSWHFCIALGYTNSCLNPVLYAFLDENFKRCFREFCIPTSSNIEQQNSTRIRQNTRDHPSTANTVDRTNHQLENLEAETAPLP
Kappa-type opioid receptor, sequence (P41145 whole entry): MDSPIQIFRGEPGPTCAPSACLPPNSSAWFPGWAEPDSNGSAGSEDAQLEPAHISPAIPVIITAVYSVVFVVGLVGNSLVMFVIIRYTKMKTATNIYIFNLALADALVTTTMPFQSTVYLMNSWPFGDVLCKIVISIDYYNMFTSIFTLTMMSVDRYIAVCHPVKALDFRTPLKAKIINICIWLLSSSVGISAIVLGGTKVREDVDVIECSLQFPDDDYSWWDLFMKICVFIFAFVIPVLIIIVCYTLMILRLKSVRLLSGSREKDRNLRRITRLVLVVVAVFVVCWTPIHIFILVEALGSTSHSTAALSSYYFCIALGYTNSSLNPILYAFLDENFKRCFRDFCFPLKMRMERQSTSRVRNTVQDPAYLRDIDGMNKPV

Work on `CN1C(=O)CNC(=O)[C@H](NC(=O)[C@@H](N)Cc2ccc(O)cc2)CNC(=O)C[C@@H](C(=O)N2CCC[C@H]2C(=O)N[C@@H](CCC(N)=O)C(=O)N[C@@H](CCCNC(=N)N)C(=O)N[C@@H](Cc2ccccc2)C(N)=O)NC(=O)[C@@H]1Cc1ccccc1` (H-Y[dDap]G[NMeF]DPQRF-NH2; lactam 2-5) yielded an Emax [1] of 48%, an MPE (Mus musculus [2]) of 97.5% and an EC50 (Mu-type opioid receptor) of 238 nM. The MPE (Mus musculus [3]) was 80.8%, the “Ratio ED50” value (Mus musculus [4]) was 16 and the Activity (Mus musculus [5]) was “inactive”. For the same compound, the EC50 ([6]; read-out: EC50) was 349 nM, the EC50 ([6]; read-out: pEC50 (converted)) was 355 nM and the half-life at 10000 µM [7] was 1.09 h. It also gave a Tlast (Mus musculus [8]) of 240 min, an Emax [9] of 63.9% and an EC50 [10] of 136 nM. It also gave an EC50 [11] of 374 nM, an Emax [12] of 47.5% and an MPE (Mus musculus [13]) of 93.2%. It also gave an ED50 (Mus musculus [14]) of 0.0135 µmol/kg and an EC50 [15] of 90.1 nM.
